Among the data in PubChem BioAssay AID248 (DTP/NCI, 2004) are T/C values, retold here.

In this test the test system is L1210 leukemia ip in BDF1 mice, survival T/C. Briefly: NCI In Vivo Anticancer Drug Screen. Data for tumor model L1210 Leukemia (intraperitoneal) in B6D2F1 (BDF1) mice. The conditions noted are these: endpoint: mean survival time, higher = longer survival. Summed up:
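Survival endpoint. Drug-treated group vs vehicle group, expressed as T divided by C. Tumor passaged by transplantation.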

[1] abbreviates: dose: 100.0 mg/kg/injection, schedule: Q04DX003 (ip), vehicle: saline with Tween-80.
The mark [2] stands for this setting: dose: 200.0 mg/kg/injection, schedule: Q04DX003 (ip), vehicle: saline with Tween-80.
The mark [3] stands for this setting: dose: 400.0 mg/kg/injection, schedule: Q04DX003 (ip), vehicle: saline with Tween-80.
Where [4] appears, read: dose: 100.0 mg/kg/injection, schedule: Q01DX009 (ip), vehicle: saline.
Where [5] appears, read: dose: 200.0 mg/kg/injection, schedule: Q01DX009 (ip), vehicle: saline.
Setting [6] is: dose: 100.0 mg/kg/injection, schedule: Q04DX003 (ip), vehicle: saline.
Setting [7] is: dose: 200.0 mg/kg/injection, schedule: Q04DX003 (ip), vehicle: saline.
Where [8] appears, read: dose: 400.0 mg/kg/injection, schedule: Q04DX003 (ip), vehicle: saline.

“And” between values parts separate entries of the source, which are not always exact repeats. Equal values may be shown once. Toxic doses and inconclusive results are not listed.

Consider `OC12CCCC3CCCC(CCC1)C32` (stereo unspecified), for which the T/C is, setting by setting: (dose: 100.0 mg/kg/injection, schedule: Q01DX009 (ip), vehicle: saline sonified) 108 % of control; (dose: 100.0 mg/kg/injection, schedule: Q04DX003 (ip), vehicle: Klucel (hydroxypropylcellulose) (HPC)) 106 % of control; (dose: 200.0 mg/kg/injection, schedule: Q01DX009 (ip), vehicle: saline sonified) 111 % of control; (dose: 200.0 mg/kg/injection, schedule: Q04DX003 (ip), vehicle: Klucel (hydroxypropylcellulose) (HPC)) 96 % of control; (dose: 400.0 mg/kg/injection, schedule: Q01DX009 (ip), vehicle: saline sonified) 92 % of control; (dose: 400.0 mg/kg/injection, schedule: Q04DX003 (ip), vehicle: Klucel (hydroxypropylcellulose) (HPC)) 104 % of control.

Consider `C1=CC2C3C=CC(CC3)C2CC1` (stereo unspecified), for which the T/C is, setting by setting: under setting [1], 106 % of control; under setting [2], 97 % of control; under setting [3], 87 % of control.

Turning to `Fc1cccc(CSC(=S)Nc2ccc(Cl)c(Cl)c2)c1`, the T/C by setting is: (dose: 50.0 mg/kg/injection, schedule: Q04DX003 (ip), vehicle: saline with Tween-80) 101 % of control; under setting [1], 104 % of control.

As for `N#Cc1cccnc1`, the T/C is, setting by setting: (dose: 50.0 mg/kg/injection, schedule: Q01DX009 (ip), vehicle: saline) 97 % of control; under setting [4], 110 % of control; under setting [1], 90 % of control; under setting [5], 108 % of control; under setting [2], 102 % of control; under setting [3], 104 % of control.

As for `CCCCNC(=S)C(CC)CCCC` (stereo unspecified), the T/C was 99 % of control (dose: 100.0 mg/kg/injection, schedule: Q04DX002 (sc), vehicle: olive oil, sesame oil, peanut oil); 99 % of control (dose: 200.0 mg/kg/injection, schedule: Q04DX002 (sc), vehicle: olive oil, sesame oil, peanut oil); 99 % of control (dose: 400.0 mg/kg/injection, schedule: Q04DX002 (sc), vehicle: olive oil, sesame oil, peanut oil).

In the case of `Cc1cc(OS(C)(=O)=O)ccc1OS(C)(=O)=O`, the T/C reads like this: (dose: 100.0 mg/kg/injection, schedule: Q01DX009 (ip), vehicle: saline with Tween-80) 94 % of control; under setting [1], 98 % of control; (dose: 200.0 mg/kg/injection, schedule: Q01DX009 (ip), vehicle: saline with Tween-80) 94 % of control; under setting [2], 94 % of control; (dose: 400.0 mg/kg/injection, schedule: Q01DX009 (ip), vehicle: saline with Tween-80) 92 % of control; under setting [3], 98 % of control.

As for `COc1ccc(OC(C)OCCOCCO)cc1` (stereo unspecified), the T/C runs as follows: (dose: 100.0 mg/kg/injection, schedule: Q04DX002 (ip), vehicle: saline) 107 % of control; (dose: 200.0 mg/kg/injection, schedule: Q04DX002 (ip), vehicle: saline) 93 % of control; (dose: 400.0 mg/kg/injection, schedule: Q04DX002 (ip), vehicle: saline) 107 % of control.

Regarding `Cc1cc(N=Nc2ccc([N+](=O)[O-])cc2)ccc1O`, the T/C was 98 % of control (dose: 100.0 mg/kg/injection, schedule: Q01DX001 (ip), vehicle: Klucel (hydroxypropylcellulose) (HPC)) and 95 % of control (dose: 200.0 mg/kg/injection, schedule: Q01DX001 (ip), vehicle: Klucel (hydroxypropylcellulose) (HPC)).

Take `CCC[CH2][Sn]([Cl])([CH2]CCC)[CH2]CCC`: the T/C is, setting by setting: (dose: 2.0 mg/kg/injection, schedule: Q01DX009 (ip), vehicle: saline) 94 % of control; (dose: 2.0 mg/kg/injection, schedule: Q04DX003 (ip), vehicle: saline) 103 % of control; (dose: 4.0 mg/kg/injection, schedule: Q01DX009 (ip), vehicle: saline) 90 % of control; (dose: 4.0 mg/kg/injection, schedule: Q04DX003 (ip), vehicle: saline) 100 % of control; (dose: 8.0 mg/kg/injection, schedule: Q01DX009 (ip), vehicle: saline) 98 % of control; (dose: 8.0 mg/kg/injection, schedule: Q04DX003 (ip), vehicle: saline) 97 % of control.

`CN(C)C(CC(=O)c1ccccc1)C(=O)O` (stereo unspecified): the T/C under setting [6] is 94 % of control and the T/C under setting [7] is 96 % of control.

For the molecule `Nc1[nH]c(=S)nc2c1ncn2C1CCCC1`, the T/C runs as follows: (dose: 100.0 mg/kg/injection, schedule: Q01DX001 (ip), vehicle: other) 93 % of control; (dose: 200.0 mg/kg/injection, schedule: Q01DX001 (ip), vehicle: other) 93 % of control.

For the molecule `O=C(Cc1cc2c(cc1[N+](=O)[O-])OCO2)c1c[nH]c2ccccc12`, the T/C is 98 % of control (dose: 50.0 mg/kg/injection, schedule: Q01DX001 (ip), vehicle: saline); 98 % of control (dose: 100.0 mg/kg/injection, schedule: Q01DX001 (ip), vehicle: saline); 95 % of control (dose: 200.0 mg/kg/injection, schedule: Q01DX001 (ip), vehicle: saline); 101 % of control (dose: 400.0 mg/kg/injection, schedule: Q01DX001 (ip), vehicle: saline).

With `CC(C)NNC(=O)c1ccc(N)cc1`, the T/C under setting [6] was 105 % of control, the T/C under setting [7] is 113 % of control and the T/C under setting [8] was 108 % of control.

As to `CC(C)c1ccc(NCN2C(=O)c3ccccc3C2=O)cc1`, the T/C runs as follows: (dose: 100.0 mg/kg/injection, schedule: Q01DX009 (ip), vehicle: Klucel (hydroxypropylcellulose) (HPC)) 100 % of control; (dose: 200.0 mg/kg/injection, schedule: Q01DX009 (ip), vehicle: Klucel (hydroxypropylcellulose) (HPC)) 103 % of control; (dose: 400.0 mg/kg/injection, schedule: Q01DX009 (ip), vehicle: Klucel (hydroxypropylcellulose) (HPC)) 101 % of control.

With `CC1(C)CC(=O)C2=C(C1)Nc1ccccc1NC2c1ccccc1` (stereo unspecified), the T/C by setting is: (dose: 50.0 mg/kg/injection, schedule: Q04DX002 (ip), vehicle: Klucel (hydroxypropylcellulose) (HPC)) 92 % of control; (dose: 100.0 mg/kg/injection, schedule: Q04DX002 (ip), vehicle: Klucel (hydroxypropylcellulose) (HPC)) 110 % of control and 113 % of control; (dose: 200.0 mg/kg/injection, schedule: Q04DX002 (ip), vehicle: Klucel (hydroxypropylcellulose) (HPC)) 92 % of control; (dose: 400.0 mg/kg/injection, schedule: Q04DX002 (ip), vehicle: Klucel (hydroxypropylcellulose) (HPC)) 98 % of control.

On to `Nc1c2ccccc2nc2ccccc12`, for which the T/C was 105 % of control (dose: 5.0 mg/kg/injection, schedule: Q01DX009 (ip), vehicle: Klucel (hydroxypropylcellulose) (HPC)); 98 % of control (dose: 10.0 mg/kg/injection, schedule: Q01DX009 (ip), vehicle: Klucel (hydroxypropylcellulose) (HPC)); 103 % of control (dose: 15.0 mg/kg/injection, schedule: Q01DX009 (ip), vehicle: Klucel (hydroxypropylcellulose) (HPC)); 86 % of control under setting [1]; 86 % of control under setting [2].

For `O=C(N/N=C\c1ccccc1Cl)C(=O)N/N=C\c1ccccc1Cl`, the T/C by setting is: under setting [1], 94 % of control; under setting [2], 94 % of control; under setting [3], 88 % of control.

As for `CC(C)(CCC#N)C1OCCO1`, the T/C is, setting by setting: under setting [4], 106 % of control; under setting [6], 98 % of control; under setting [5], 102 % of control; under setting [7], 105 % of control; (dose: 400.0 mg/kg/injection, schedule: Q01DX009 (ip), vehicle: saline) 102 % of control; under setting [8], 96 % of control.

With `NC(N)=NCCS(=O)(=O)Nc1ccc(Nc2c3ccccc3nc3cc([N+](=O)[O-])ccc23)cc1`, the T/C is 121 % of control (dose: 0.75 mg/kg/injection, schedule: Q01DX009 (ip), vehicle: water); 163 % of control (dose: 6.0 mg/kg/injection, schedule: Q01DX009 (ip), vehicle: water); 157 % of control (dose: 25.0 mg/kg/injection, schedule: Q04DX003 (ip), vehicle: water); 175 % of control (dose: 50.0 mg/kg/injection, schedule: Q04DX003 (ip), vehicle: water).

Regarding `CC(=O)n1c2ccccc2c2ccccc21`, the T/C is 95 % of control (dose: 100.0 mg/kg/injection, schedule: Q04DX002 (ip), vehicle: gum acacia); 88 % of control (dose: 200.0 mg/kg/injection, schedule: Q04DX002 (ip), vehicle: gum acacia); 100 % of control (dose: 400.0 mg/kg/injection, schedule: Q04DX002 (ip), vehicle: gum acacia).
